Read-outs that look alike come from different tables or passages of the source.

In one assay the test system is 10T1/2 fibroblasts. As to the kind of experiment: Cell proliferation in response to serum (hemocytometer counts). The assay is classed as cell-based. Conditions: 100 ug/mL peptide or PD98059 50 ug/mL, 48 h. On the procedure:
10T1/2 fibroblasts were grown to semi-confluence and were incubated with enhanced affinity hyaluronan binding peptide (shown in SEQ.ID.NO.:3) at a concentration of 100 ug/mL for 48 h. The cells were then trypsinized in 0.12% trypsin and counted using a hematocytometer. Released cells were stained with trypan blue and only viable cells were counted.

The subject of assay [1] is Ras-transformed 10T1/2 fibroblasts. As to the kind of experiment: Apoptosis (Hoechst dye positive nuclei). The assay is classed as cell-based. The following applies: 100 ug/mL peptide or PD98059 50 ug/mL; 48 h. How it is done:
Ras-transformed 10T1/2 fibroblasts were grown to sub-confluence and were incubated with enhanced affinity hyaluronan binding peptide (shown in SEQ.ID.NO.:3) at a concentration of 100 ug/mL for 48 h. The cells were then stained with Hoechst dye using standard procedures and the percentage of apoptotic cells were determined by detection of positive stain in the nucleus of randomly selected cells.

For assay [2] the following is noted: peptide of WO 93/21312 with carboxy-terminal histidine; cited from earlier work.
Assay [3] in a line: HA binding of biotinylated peptides on HA-derivatized ELISA plates. How it is done:
A 15-mer phage display library was obtained from Chiron Inc. (CA). Hyaluronan (HA) was biotinylated and mixed with streptavidin-sepharose (Sigma) and washed. The Biotinylated HA was incubated with the phage library, then recovered with streptavidin-sepharose. The phage biotinylated HA-streptavidin -sepharose mixture was washed 4 times with phosphate buffered saline (PBS) and recovered phage were plated on a bacteria lawn in petri dishes. Clones were isolated and assessed for their ability to bind to HA. For the first screen, a total 75 clones were obtained after 4 cycles of screening. To assess the specificity of binding of these clones to HA, two approaches were taken. In the first, the ability of the clones to bind to biotin-sepharose or to streptavidin-sepharose were assessed. Clones were recovered from the bacteria lawn and mixed with biotin-sepharose and streptavidin-sepharose. Sepharose beads were washed 4 times with PBS and plated onto a bacteria lawn. In the second assay, clones were mixed with excess (100 ug/mL) HA (mean molecular weight: 700,000 daltons (Hyal, Ontario, Canada) together with biotinylated HA. After mixing the biotinylated HA was recovered with streptavidin-sepharose, washed as above and plated onto a bacteria lawn. Clones were sequenced in an automatic sequencer. A schematic diagram illustrating the isolation of enhanced affinity hyaluronan binding peptides from the 15-mer phage display library is shown in FIG. 1.
Enhanced affinity HA binding peptides mimicking sequences obtained from the phage display library and scrambled peptides prepared from these sequences were tested for their HA binding properties. HA was derivatized to NUNC ELISA plates and biotinylated peptides were added to the plates and incubated for 2 h at room temperature. Plates were washed 4 times with PBS and then incubated with streptavidin-peroxidase for 1 h, washed, developed with hydrogen peroxide and their optical densities were determined. Controls were conducted using BSA-coated ELISA wells.

In assay [4] the test system is Fibroblast (ras transformed). Put plainly: Random locomotion by image analysis, ras-transformed 10T1/2 fibroblasts on fibronectin. The assay is classed as cell-based. How it is done: (§1) Ras-transformed 10T1/2 or parental 10T1/2 fibroblasts (Egan, S. E. et al., Science 238: 202-205, 1987; Hardwick, C. et al., J. Biol. Chem. 117: 1343-1350, 1992) were cultured in DMEM containing 10% fetal bovine serum (FBS) and maintained in 5% CO2 humidified atmospheric condition. Every second passage, cells were maintained in 600 ug/mL G418 for one passage to select for maintenance of the mutant active ras-geneticin construct in cells. Cells were passaged at confluence and utilized under 20 passages. Macrophages were obtained from lung lavage 1 h after bleomycin insertion (Gelzleichter, T. R. et al., Fund. Appl. Toxicol. 30: 39-46, 1996) and used immediately in assays. Neutrophils were obtained from human blood as described and used immediately.
(§2) For routine analysis of random locomotion, 10T1/2 fibroblasts or leukocytes were subcultured into culture flasks coated with 20 ug/mL fibronectin and maintained in DMEM plus 10% FBS for 24-48 h. The enhanced affinity hyaluronan binding peptide (shown in SEQ.ID.NO.:3) or scrambled peptides were incubated with the cultures at concentrations of 50 ng to 1 ug per mL. […] Filming was conducted for up to 24 h with images recorded every 20 min.

For a further assay, the system named is Alveolar macrophages. Put plainly: Random locomotion by image analysis, alveolar macrophages. The assay is classed as cell-based. Conditions: nuclear displacement by image analysis, n = 100 cells. On the procedure: as §1, §2
The test system of a further assay is Human neutrophils. Put plainly: Chemotaxis in Boyden chamber, human neutrophils to IL-8. Conditions: MTT blue, n = 3 replicates, the values are: MTT absorbance (chemotaxis). In kind it is cell-based. On the procedure: as §1
(§3) To assess the effects of enhanced affinity hyaluronan binding peptides and scrambled peptides on chemotaxis, a modified multi-well boyden chamber was utilized as described by Shi, Y. et al. (J. Immunol. Methods 164: 149-154, 1993).

A further assay deals with Rat alveolar macrophages. As to the kind of experiment: Chemotaxis in Boyden chamber, rat alveolar macrophages to C5a. In kind it is cell-based. The following applies: MTT blue, n = 3 replicates, the values are: MTT absorbance (chemotaxis). How it is done:
as §1, §3

Another assay has as its system S1 macrophage cell line. Put plainly: Chemotaxis in Boyden chamber, S1 macrophage cell line to C5a. The assay is classed as cell-based. The following applies: MTT blue, n = 3 replicates, the values are: MTT absorbance (chemotaxis).
Description: as §3

The next assay concerns punch biopsy wound. As to the kind of experiment: Rat punch biopsy model of skin repair. The assay is classed as in vivo. On the procedure: Three-month-old female Fischer rats were anesthesized and subjected to […] full thickness punch biopsies. Wounds were filled with a sterile solution of 1% collagen type 1 gel containing either PBS alone, HA binding peptide (shown in SEQ.ID.NO.:3) (20 mg/mL) or scrambled peptide (20 mg/mL) that contained the same amino acids as the HA binding peptide but in a random order. 100 uL of the collagen solution was applied to the punch biopsy wound and allowed to gel over 20 min. The wounds were then covered with a protective plastic shield that was sewn into the skin. Wounds were recovered from euthenized rats with a 9 mm punch biopsy.
Recovered punch biopsies were extracted with RIPA buffer and total protein was determined with a Biorad protein assay. Protein (50 ug) was loaded onto each lane and proteins were separated by electrophoresis on SDS-PAGE. Separated proteins were transferred to a nitrocellulose blot and the blot was processed for reactivity to anti-RHAMM antisera or anti-CD44 antibody (Dillon, P. W. et al., J. Surg. Res. 57: 170-173, 1994).
Messenger RNA was isolated by Micro-FastTrack Kit (Invitrogen, San Diego, Calif.). The quality of RNA samples was confirmed by denaturing gel electrophoresis. Reverse transcription was performed by using First Strand cDNA Synthesis kit (Clontech, Polo Alco, Calif.). Briefly, 0.2 ug of mRNA was used to generate cDNA using oligo(dT) 18 primer. Samples containing 0.2 ug of mRNA per time point was heat-denatured in DEPC-treated water for 2 min at 70° C. and incubated at 42° C. for 1 h in a total volume of 20 uL of 20 pmol primers, 0.5 mM of each dNTP, 1 unit/uL of RNase inhibitor and 200 units/ug RNA of MMLV. The reaction was stopped by heating at 94° C. for 5 min and to destroy any DNase activity. The reaction mixture was diluted to a final volume of 100 uL and aliquots were stored at −80° C. until further use.
To distinguish between amplication of genomic DNA and complementary DNA, the primer pairs were designed to enclose at least one intron on the genomic sequences of RHAMM and beta-actin. […]

`COc1cccc(-c2cc(=O)c3ccccc3o2)c1N` [PD98059, reference compound]: the “Number of Cells (×10^6)” value in the assay with 10T1/2 fibroblasts is given as 0.5 ± 0.1 ×10^6. The “% Hoechst Positive Nuclei” value in [1] is 40 ± 2.5%.

For KLRSQLVHHH, the “ability to bind HA” value in assay [2] was “unable to bind to HA”.

As to STMMSRSHKTRSCHH, in [3], the “ability to bind HA” value is on record as “can bind to HA”.

On to STMMSRSHKTRSHH, for which the “ability to bind HA” value in [3] was “can bind to HA”. Also, the “Concentrations optimal for inhibiting cell motility” value in assay [4] (10T1/2 fibroblasts or leukocytes, tested 50 ng to 1 ug per mL) was 50 to 100 ng/mL. The “Rate of Locomotion, random locomotion” value in assay [4] (Fibroblast (ras transformed), nuclear displacement by image analysis, n = 100 cells) came out at 10.83 ± 1.07 um/h; with Alveolar macrophages it was 3.24 ± 0.53 um/h. The Rate of Locomotion, chemotaxis was found to be 0.088 ± 0.009 in the assay with Human neutrophils, 0.425 ± 0.028 in the assay with Rat alveolar macrophages and 0.238 ± 0.014 with S1 macrophage cell line. In the assay with 10T1/2 fibroblasts, the “Number of Cells (×10^6)” value is listed as 2.4 ± 0.2 ×10^6. In assay [1], the “% Hoechst Positive Nuclei” value was 4.9 ± 0.9%. For the same molecule, the “HA accumulation within the remodelling dermal layer” value in the assay on punch biopsy wound (at 24 h, biotinylated aggrecan staining) is “increase in HA accumulation”. For the same molecule, the “keratinocyte resurfacing of the wound (re-epithelialization)” value in the assay on punch biopsy wound (rat, applied in collagen gel to the wound, 24 h after injury) is reported as “inhibited keratinocyte resurfacing of the wound”. In addition, in the assay with punch biopsy wound (rat, peptide 20 mg/mL in collagen gel), the “number of fibroblasts at the wound site” value is recorded as “reduced the number of fibroblasts”.

Turning to “STMMSRSHKTRSHHV [peptide of the Formula III with a valine residue at the C-terminal]”, the “ability to bind HA” value in assay [3] is “Enhanced affinity binding”.

On to TMTRPHFHKRQLVLS, for which, in [3], the “ability to bind HA” value is on record as “Enhanced affinity binding”.

Source of the values: patent publication US20040034201A1, “Enhanced affinity hyaluronan binding peptides” (priority 1997, published 2004).
